SMILES strings stand for the structures.

The test system of data set [1] is Pseudomonas aeruginosa BA. The data set is described as follows: In vivo activity in infected mouse. The note with it: po; Maus, p.o., gegen Pseudomonas aeruginosa BA; read-out: CD50 p.o.
The next data set concerns E. coli 1346. The data set is described as follows: In vivo activity in infected mouse. The note with it: Escherichia coli, po; Maus, p.o., gegen E. coli 1346; read-out: CD50 p.o.
Data set [2] deals with Streptococcus pyogenes β15. The experiment in a line: In vivo activity in infected mouse. The note with it: po; Maus, p.o., gegen Streptococcus pyogenes β15; read-out: CD50 p.o.
A further data set relates to Proteus mirabilis. The experiment in a line: In vivo activity in infected mouse. The note with it: po; Maus, p.o., gegen Proteus mirabilis; read-out: CD50 p.o.
The next data set concerns Salmonella typhimurium. The data set is described as follows: In vivo activity in infected mouse. The note with it: Salmonella enterica, po; Maus, p.o., gegen Salmonella typhimurium; read-out: CD50 p.o.
Another data set can be described thus: Acute toxicity. The note with it: mouse, in vivo.
Another data set in a line: in vivo. The note with it: mouse.
For data set [3] the following is noted: in vivo.
Another data set in a line: Water solubility. It counts as physicochemical. As for the experimental part: Wie gefunden wurde, lassen sich mit Fluoramphenicol wässrige Lösungen in Konzentrationen bis zu 0,5 g/10 ml herstellen. Solche Lösungen stellen eine wertvolle parenterale Applikationsform, insbesondere für die intravenöse Injektion und -Infusion dar. Dank seiner guten Wasserlöslichkeit eignet sich Fluoramphenicol auch für die Herstellung von ophthalmologischen Präparaten mit besonders guter Verträglichkeit, insbesondere für die Herstellung von Augentropfen.

For data set [4] the following is noted: J. Pharm. Pharmacol. 3 [1951], 143; cited from earlier work.
The subject of a further data set is menschlichen Lymphozyten. The note with it: human.

As usually defined, the LD50 is the dose expected to kill half of the subjects tested. The low end stands for greater toxicity, the high end for lower toxicity. On to `O=C(N[C@H](CO)[C@H](O)c1ccc([N+](=O)[O-])cc1)C(Cl)Cl` [Chloramphenicol, reference compound], for which the ED50 in [1] came out at 93 mg/kg; in the data set with E. coli 1346 it was 6.6 mg/kg; in data set [2] it was 22 mg/kg; in the data set with Proteus mirabilis, 5.8 mg/kg; with Salmonella typhimurium, 18 mg/kg. In addition, the LD50 fell in the range of 1000 to 1500 mg/kg in the data set “Acute toxicity” (ip) and 2000 to 3000 mg/kg in the data set “Acute toxicity” (po).

As for `O=C(N[C@H](CO)[C@H](O)c1ccc([N+](=O)[O-])cc1)C(F)F` [Fluoramphenicol, D-threo-1-(p-Nitrophenyl)-2-difluor-acetamino-l,3-propandiol], the figures for the LD50 in the data set “in vivo” (ip) and in the data set “in vivo” (po) were 2000 to 3000 mg/kg and 3000 to 4000 mg/kg, respectively. Besides, the “metabolic stability (concluded from urine recovery)” value in data set [3] is “metabolisch beständig”. Also, the Serumkonzentrationen entry in [3] (po) is “höhere Serumkonzentrationen als Chloramphenicol”. Further, in data set [3] (po), the “Urinkonzentrationen, mal höher als Chloramphenicol” value is on record as “ca. lO”. In addition, the “mal langsamer ausgeschieden als Chloramphenicol” value in data set [3] (po) is listed as 2-3 mal. Further, the “totale Urin-recovery an aktivem Fluoramphenicol, mal höher als an aktivem Chloramphenicol” value in [3] (po) is on record as “ca. lO”. In “Water solubility” (aqueous solution), the “wässrige Lösungen in Konzentrationen” value is ≤ 0,5 g/10 ml. Moreover, the Wasserlöslichkeit entry in “Water solubility” (result in words) is recorded as “unerwartet hohe Wasserlöslichkeit”. For the same compound, the ED50 was found to be 33 mg/kg in [1]; 6.6 mg/kg with E. coli 1346; 11 mg/kg in data set [2]; 5.2 mg/kg in the data set with Proteus mirabilis; 19 mg/kg in the data set with Salmonella typhimurium. Also, the “Cytotoxizität gegenüber KB-Zellen, mal weniger toxisch als Chloramphenicol” value with KB-Zellen is 3-5 mal. Besides, the biological activity result in [4] was “biologisch unwirksam”. Moreover, the “Cytotoxizität gegenüber menschlichen Lymphozyten, mal weniger toxisch als Chloramphenicol” value in the data set with menschlichen Lymphozyten is listed as roughly 3 mal.

Values taken from patent publication EP0007995A1, “Chemotherapeutic preparations and their manufacture” (F. HOFFMANN-LA ROCHE & CO. Aktiengesellschaft, priority 1978, dated 1980).
